Source: patent US20120214710A1, “METHOD OF PREDICTING RESPONSE TO THALIDOMIDE IN MULTIPLE MYELOMA PATIENTS” (Dublin City University, priority 2009, published 2012)

Legend:
[1] = tested on: Multiple Myeloma; test: Day-100 re-staging (IMWG uniform response criteria) of newly diagnosed MM patients on thalidomide-based regimens; type: in vivo, human
Protocol: Serum samples from 51 consecutive newly diagnosed MM patients who were having initial treatment with thalidomide-based regimens were analyzed. Samples were obtained at diagnosis and prior to commencement of therapy. The samples were collected according to standard phlebotomy procedures from consented patients. Ethical consent was granted from the Mater Misericordiae University Hospital, Dublin, Ireland ethics committee. 10 ml of blood sample was collected into additive free blood tubes and was allowed to clot for 30 minutes to 1 hour at room temperature. Samples were coded and transported on ice to the laboratory. The serum was denuded by pipette from the clot and place into a clean tube. The tubes were centrifuged at 400 relative centrifugal force (rcf) for 30 minutes at 4° C. Serum was aliquoted in the cryovial tubes, labeled and stored at −80° C. until time of analysis. The time from sample procurement to storage at −80° C. was less than 3 hours. Each serum sample underwent no more than 3 freeze/thaw cycles prior to analysis.
The mean age of the patient group was 68 SD+/−6.95 years (range 52-81 years); 27 were male and 24 female. Based on Day-100 re-staging investigations and using the International Myeloma Working Group (IMWG) uniform response criteria (Rajkumar S V, Buadi F. Multiple myeloma: new staging systems for diagnosis, prognosis and response evaluation. Best Pract Res Clin Haematol. 2007; 20:665-680; Durie B G, Harousseau J L, Miguel J S, et al. International uniform response criteria for multiple myeloma. Leukemia. 2006;20:1467-1473) for MM, 29 responders and 22 non-responders to thalidomide-based therapy were identified. The mean age was 66 SD+/−6.80 years (range, 52-81 years) for responders and 70 SD+/−6.69 years (range, 57-79 years) for non-responders. Based on the ISS classification (Hotta T. [Classification, staging and prognostic indices for multiple myeloma]. Nippon Rinsho. 2007; 65:2161-2166), 6 responding patients had stage I, 15 had stage II and 8 had stage III disease. […] had stage I, 11 had stage II and 9 had stage III disease. In the responders group, 24 patients were treated with thalidomide and dexamethasone (TD), 3 with thalidomide, cyclophosphamide and dexamethasone (CTD) and 2 with melphalan, prednisone and thalidomide (MPT). In the non-responder group, 17 patients received TD, 4 received CTD and 1 patient received MPT. Median follow-up was 13 months (range, 6-21 months). In the responder group, 9 patients achieved complete response (CR) and 20 achieved very good partial response (VGPR). Five non-responders had Stable disease (SD) and the remaining 17 had Progressive disease (PD) (Table I).

[2] = use in myeloma; cited from earlier work
[3] = 51 newly diagnosed MM patients, Day-100 re-staging, IMWG criteria

SMILES: O=C1CCC(N2C(=O)c3ccccc3C2=O)C(=O)N1 (stereo not drawn) [thalidomide, 2-(2,6-dioxopiperidin-3-yl)-1H-isoindole-1,3(2H)-dione]
- number of non-responders (SD or PD) [1, 3]: 22 patients
- number of responders (CR or VGPR) [1, 3]: 29 patients
- patients with Progressive disease (PD) ([1]; non-responder group, n=22): 17 patients
- patients achieving complete response (CR) ([1]; responder group, n=29): 9 patients
- patients achieving very good partial response (VGPR) ([1]; responder group, n=29): 20 patients
- serious side effects [2]: thrombo-embolic disease and peripheral neuropathy
